ChEMBL document CHEMBL3639333, “Compounds, pharmaceutical compositions and uses thereof” (2014)

biological target: Acetyl-CoA carboxylase 2 (Homo sapiens, UniProt O00763); test: Spectrophotometric 384 Well Assay: Malonyl CoA formation by acetyl CoA carboxylases is stoichometrically linked to the consumption of ATP. ACC2 activity is measured in a NADH-linked kinetic method measuring ADP generated during the ACC reaction using a coupled lactate dehydrogenase/pyruvate kinase reaction.For biological testing, a human ACC2 construct which lacks the 128 amino acids at the N-terminus for increased solubility (nt 385-6966 in Genbank entry AJ575592) is cloned. The protein is then expressed in insect cells using a baculoviral expression system. Protein purification is performed by anion exchange.All compounds are dissolved in dimethyl sulfoxide (DMSO) to a concentration of 10 mM.Assay reactions are then carried out in 384-well plates, with hACC2 in an appropriate dilution and at final assay concentrations (f.c.) of 100 mM Tris (pH 7.5), 10 mM trisodium citrate, 25 mM KHCO3, 10 mM MgCl2, 0.5 mg/mL BSA, 3.75 mM reduced L-glutathione, 15 U/mL lactate dehydrogenase, 0.5 mM phosphoenolpyruvate.
Sequence (O00763 whole entry): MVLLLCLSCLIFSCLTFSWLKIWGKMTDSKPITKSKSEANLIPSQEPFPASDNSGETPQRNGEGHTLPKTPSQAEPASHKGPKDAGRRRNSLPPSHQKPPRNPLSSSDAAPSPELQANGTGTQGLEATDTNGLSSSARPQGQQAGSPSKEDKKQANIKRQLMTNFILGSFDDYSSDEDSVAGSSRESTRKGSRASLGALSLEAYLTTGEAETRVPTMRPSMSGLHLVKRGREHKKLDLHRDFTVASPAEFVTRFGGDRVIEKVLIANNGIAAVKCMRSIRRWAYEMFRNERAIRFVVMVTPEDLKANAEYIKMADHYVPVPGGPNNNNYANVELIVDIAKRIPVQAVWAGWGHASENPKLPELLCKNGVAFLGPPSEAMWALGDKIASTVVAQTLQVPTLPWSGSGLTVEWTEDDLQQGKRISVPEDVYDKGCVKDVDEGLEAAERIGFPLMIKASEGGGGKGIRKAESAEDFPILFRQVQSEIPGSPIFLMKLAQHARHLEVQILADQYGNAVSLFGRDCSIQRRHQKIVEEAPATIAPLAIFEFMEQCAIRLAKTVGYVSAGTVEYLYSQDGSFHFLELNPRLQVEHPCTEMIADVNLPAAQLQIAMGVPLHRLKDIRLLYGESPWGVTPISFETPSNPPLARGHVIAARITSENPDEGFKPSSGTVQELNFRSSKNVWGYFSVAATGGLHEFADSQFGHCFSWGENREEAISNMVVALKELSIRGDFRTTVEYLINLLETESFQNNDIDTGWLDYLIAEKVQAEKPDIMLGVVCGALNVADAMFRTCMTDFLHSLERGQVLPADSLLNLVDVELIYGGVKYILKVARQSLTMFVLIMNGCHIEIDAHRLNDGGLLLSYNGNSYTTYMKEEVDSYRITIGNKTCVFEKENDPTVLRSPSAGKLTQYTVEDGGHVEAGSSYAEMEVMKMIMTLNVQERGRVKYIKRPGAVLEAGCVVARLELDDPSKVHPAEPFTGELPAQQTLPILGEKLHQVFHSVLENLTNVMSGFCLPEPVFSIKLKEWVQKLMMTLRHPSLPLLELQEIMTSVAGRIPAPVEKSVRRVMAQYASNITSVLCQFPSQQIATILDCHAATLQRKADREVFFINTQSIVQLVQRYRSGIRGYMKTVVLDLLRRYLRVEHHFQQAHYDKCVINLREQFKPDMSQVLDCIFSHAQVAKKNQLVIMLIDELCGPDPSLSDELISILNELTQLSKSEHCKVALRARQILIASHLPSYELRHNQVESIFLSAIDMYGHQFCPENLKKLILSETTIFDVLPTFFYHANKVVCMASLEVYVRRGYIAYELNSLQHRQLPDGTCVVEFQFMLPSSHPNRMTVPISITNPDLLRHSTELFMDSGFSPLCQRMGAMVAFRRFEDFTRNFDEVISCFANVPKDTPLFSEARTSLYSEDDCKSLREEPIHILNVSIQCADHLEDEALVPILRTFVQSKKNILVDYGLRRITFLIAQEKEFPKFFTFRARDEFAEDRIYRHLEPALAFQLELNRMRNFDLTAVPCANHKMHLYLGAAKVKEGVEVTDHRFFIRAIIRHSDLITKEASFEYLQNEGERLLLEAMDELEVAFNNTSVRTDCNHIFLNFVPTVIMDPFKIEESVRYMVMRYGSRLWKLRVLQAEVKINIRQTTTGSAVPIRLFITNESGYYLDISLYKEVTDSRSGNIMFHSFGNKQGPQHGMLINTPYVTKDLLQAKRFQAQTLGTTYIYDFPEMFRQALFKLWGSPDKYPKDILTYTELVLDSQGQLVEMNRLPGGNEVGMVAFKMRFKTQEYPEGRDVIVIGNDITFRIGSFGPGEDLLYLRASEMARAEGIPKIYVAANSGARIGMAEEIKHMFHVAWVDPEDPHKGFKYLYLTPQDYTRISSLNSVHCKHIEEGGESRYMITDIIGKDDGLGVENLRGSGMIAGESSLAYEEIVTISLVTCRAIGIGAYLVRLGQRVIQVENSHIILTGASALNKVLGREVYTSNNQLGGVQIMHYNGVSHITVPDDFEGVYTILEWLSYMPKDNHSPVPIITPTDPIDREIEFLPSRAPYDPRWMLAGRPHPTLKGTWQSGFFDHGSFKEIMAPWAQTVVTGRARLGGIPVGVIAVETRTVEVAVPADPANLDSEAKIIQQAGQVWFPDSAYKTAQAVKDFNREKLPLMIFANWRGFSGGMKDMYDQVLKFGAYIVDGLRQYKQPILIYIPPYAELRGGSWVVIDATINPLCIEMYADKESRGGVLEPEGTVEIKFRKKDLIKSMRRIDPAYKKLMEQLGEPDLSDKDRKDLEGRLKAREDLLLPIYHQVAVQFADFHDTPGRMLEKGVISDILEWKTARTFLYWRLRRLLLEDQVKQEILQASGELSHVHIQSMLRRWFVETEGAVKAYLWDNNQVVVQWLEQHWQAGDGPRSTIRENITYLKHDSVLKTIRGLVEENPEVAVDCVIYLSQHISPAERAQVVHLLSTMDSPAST

| IC50 [µM] | Structure (SMILES) |
| --- | --- |
| 0.79 | CCOc1ccc(C#Cc2ccc(CC(C)NC(=O)CC3CC3)cc2)cc1 (centres undefined) |
| 4.2 | CC(=O)NC(C)Cc1ccc(C#Cc2ccc(C(=O)NCC(C)C)cc2)cc1 (centres undefined) |
| 2.1 | CC(=O)NC(C)Cc1ccc(C#Cc2cccc(C(=O)N3CCC3)c2)cc1 (centres undefined) |
| 9.9 | CC(=O)NC(C)Cc1ccc(C#Cc2ccnc(NCC(F)F)n2)cc1 (centres undefined) |
